Measurements as given in patent publication US20100004443A1, “LINEAR PYRIDAZINE AND PYRROLE COMPOUNDS, METHOD FOR OBTAINING THEM AND APPLICATIONS” (CENTRE NATIONAL DE LA RECHERCHE SCIENTIFIQUE (C.N., priority 2006, published 2010).
≈ marks a conversion by molar mass, not a printed value. Where “and” joins values, the source holds several entries; their conditions need not be identical. Equal values may be shown once.

Experiments:
KB cells = test: Cytotoxicity on KB cells; assay type: cell-based
Leishmania mexicana = test: Parasitology, Leishmania mexicana; assay type: cell-based; conditions: read-out: Parasitology IC50 or 80 Leishmania mexicana
Candida albicans = test: Parasitology, Candida albicans; assay type: cell-based; conditions: read-out: Parasitology IC50 or 80 Candida albicans
[1] = system: KB, Caco, Huh7 and fibroblast cells; test: in vitro cytotoxicity test on KB, Caco, Huh7 and fibroblast cells; assay type: cell-based
Source text: Preferably, the cancer concerned by the invention is a carcinoma, for instance a carcinoma of the ear, nose or throat, of the lungs, of the uterus, of the digestive system (oesophagus, colon, liver), of the skin, of the breasts, of the prostate, of the ovaries, etc.

Cytotoxicity on KB cells = assay type: cell-based; conditions: human, KB cells
E. coli = test: Inhibition of the growth of E. coli; assay type: cell-based
tonB protein = tonB protein (Escherichia coli, UniProt P02929); test: Effect on tonB protein (iron transfer for bacterial growth)
[2] = second value (cell beside the first)

Chain of tonB protein (P02929 whole entry): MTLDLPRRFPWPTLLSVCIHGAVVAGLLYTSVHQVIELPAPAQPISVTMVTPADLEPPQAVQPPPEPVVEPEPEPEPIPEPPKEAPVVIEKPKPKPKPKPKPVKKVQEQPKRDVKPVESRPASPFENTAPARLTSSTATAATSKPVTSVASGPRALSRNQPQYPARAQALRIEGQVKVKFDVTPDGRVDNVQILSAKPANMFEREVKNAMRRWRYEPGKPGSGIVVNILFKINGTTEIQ

Structure (SMILES)	KB cells Cytotoxicity % inhibition à [10^−5] (KB cells; first value)	KB cells Cytotoxicity % inhibition à [10^−5] (KB cells; [2])	IC50 (Leishmania mexicana)	IC50 (Candida albicans)	cytotoxic activity in a cancerous cell model [1]	IC50 (Cytotoxicity on KB cells)	IC50 (KB cells; Homo sapiens, KB, read-out: IC50 on KB cancerous cells)	inhibition of the growth of E. coli (E. coli)	effect on the tonB protein (tonB protein)
Cc1cccc(-c2ccc(-c3ccc(-c4cccc(C)n4)nn3)nn2)n1 [Compound 2, 6,6′-bis(6-methylpyridin-2-yl)-3,3′-bipyridazine]	23%	12%	2.2 µM and 0.91 µg/mL	62 µM and 25.9 µg/mL	–	–	–	–	–
O=C(O)c1cccc(-c2ccc(-c3ccccn3)nn2)n1 [Compound 45, 3-(2-carboxypyridin-6-yl)-6-(pyridin-2-yl)-pyridazine]	9%	3%	14 µM and 3.9 µg/mL	> 100 µM	–	–	–	–	–
c1ccc(-c2ccc(-c3ccc(-c4ccccn4)nn3)nn2)nc1 [Compound 19, 6,6′-bis(pyridin-2-yl)-3,3′-bipyridazine]	16%	–	–	–	–	–	–	–	–
O=C(O)c1cccc(-c2ccc(-c3cccc(C(=O)O)n3)nn2)n1 [Compound 48, 3,6-bis(2-carboxypyridin-6-yl)-pyridazine]	21%	–	3 µM and 0.96 µg/mL	> 100 µM and ≥ 32.2 µg/mL	–	–	–	–	–
CCCCc1cc(-c2ccccn2)[nH]c1-c1ccccn1 [Compound 68]	43%	–	–	–	–	–	–	–	–
S=c1ccc(-c2ccccn2)n[nH]1 [Compound 10, 6-(pyridin-2-yl)-2H-pyridazin-3-thione]	84%	74%	–	–	very high levels of cytotoxic activity	–	–	–	–
Cc1cccc(-c2ccc(-c3ccccn3)nn2)n1 [Compound 44, 3-(6-methylpyridin-2-yl)-6-(pyridin-2-yl)pyridazine]	11%	21%	< 1 µM and < 0.25 µg/mL	600 nM and 0.15 µg/mL	very high levels of cytotoxic activity	–	–	–	–
C=C(OCC)c1ccc(-c2ccc(C(=C)OCC)nn2)nn1 [Compound 24, 6,6′-di-(1-ethoxyvinyl)-3,3′-bipyridazine]	96%	95%	–	–	very high levels of cytotoxic activity	1.23 µM and 0.37 µg/mL	0.3 µg/mL (≈ 1.01 µM)	able to inhibit the growth of E. coli	affects the tonB protein
c1ccc(-c2ccc(-c3ccccn3)nn2)nc1 [Compound 80, 3,6-bispyridin-2-ylpyridazine]	–	–	–	–	very high levels of cytotoxic activity	–	–	–	–
